Measurements as given in PubChem BioAssay AID2060601 (Molecular Pharmacology Branch, DTP, NCI, 2025).

System: 874868-142-R-J2-PDC complex spheroids, growth % test/control
Assay: Anticancer human tumor 874868-142-R-J2-PDC patient-derived head and neck squamous carcinoma cell line growth inhibition [CLK]
Conditions: for IC50: curve of first compound; for viability, T/C: stronger effect = lower value
Outline: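 Patient-derived tumor cells grown as complex spheroids with HUVEC endothelial cells and mesenchymal stem cells, treated with drug combinations. Concentrations descend in half-log steps from near clinical Cmax, or from 10 microM if Cmax unknown.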

[1] = second compound 0.0316 µM, first compound 0.0316 µM
[2] = second compound 0.0316 µM, first compound 0.1 µM
[3] = second compound 0.0316 µM, first compound 0.316 µM
[4] = second compound 0.0316 µM, first compound 1 µM
[5] = second compound 0.0316 µM, first compound 3.16 µM
[6] = second compound 0.0316 µM, first compound 10 µM
[7] = second compound 0.1 µM, first compound 0.0316 µM
[8] = second compound 0.1 µM, first compound 0.1 µM
[9] = second compound 0.1 µM, first compound 0.316 µM
[10] = second compound 0.1 µM, first compound 1 µM
[11] = second compound 0.1 µM, first compound 3.16 µM
[12] = second compound 0.1 µM, first compound 10 µM
[13] = second compound 0.316 µM, first compound 0.0316 µM
[14] = second compound 0.316 µM, first compound 0.1 µM
[15] = second compound 0.316 µM, first compound 0.316 µM
[16] = second compound 0.316 µM, first compound 1 µM
[17] = second compound 0.316 µM, first compound 3.16 µM
[18] = second compound 0.316 µM, first compound 10 µM
[19] = second compound 1 µM, first compound 0.0316 µM
[20] = second compound 1 µM, first compound 0.1 µM
[21] = second compound 1 µM, first compound 0.316 µM
[22] = second compound 1 µM, first compound 1 µM
[23] = second compound 1 µM, first compound 3.16 µM
[24] = second compound 1 µM, first compound 10 µM
[25] = second compound 3.16 µM, first compound 0.0316 µM
[26] = second compound 3.16 µM, first compound 0.1 µM
[27] = second compound 3.16 µM, first compound 0.316 µM
[28] = second compound 3.16 µM, first compound 1 µM
[29] = second compound 3.16 µM, first compound 3.16 µM
[30] = second compound 3.16 µM, first compound 10 µM
[31] = second compound 10 µM, first compound 0.0316 µM
[32] = second compound 10 µM, first compound 0.1 µM
[33] = second compound 10 µM, first compound 0.316 µM
[34] = second compound 10 µM, first compound 1 µM
[35] = second compound 10 µM, first compound 3.16 µM
[36] = second compound 10 µM, first compound 10 µM
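Also: spheroids exposed to the compounds for 7 days.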
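For viability, T/C in this document: 100% = DMSO vehicle control viability.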

CC1(C)CCC(CN2CCN(c3ccc(C(=O)NS(=O)(=O)c4ccc(NCC5CCOCC5)c([N+](=O)[O-])c4)c(Oc4cnc5[nH]ccc5c4)c3)CC2)=C(c2ccc(Cl)cc2)C1 + CNC(=O)c1ccc(Nc2nc(OC3CCCC3)c3c(-c4ccc5nc(C)oc5c4)c[nH]c3n2)c(OC)c1
IC50 (second compound 0.0316 µM): 7610 nM | IC50 (second compound 0.1 µM): 8100 nM | IC50 (second compound 0.316 µM): 5320 nM | IC50 (second compound 1 µM): 3200 nM | IC50 (second compound 3.16 µM): < 31.6 nM | IC50 (second compound 10 µM): < 31.6 nM | viability, T/C [1]: 104% | viability, T/C [2]: 103% | viability, T/C [3]: 105% | viability, T/C [4]: 92.7% | viability, T/C [5]: 117% | viability, T/C [6]: 33% | viability, T/C [7]: 95.8% | viability, T/C [8]: 89.4% | viability, T/C [9]: 86.7% | viability, T/C [10]: 84.2% | viability, T/C [11]: 94.6% | viability, T/C [12]: 41.1% | viability, T/C [13]: 56.3% | viability, T/C [14]: 67.9% | viability, T/C [15]: 72.4% | viability, T/C [16]: 62.5% | viability, T/C [17]: 51% | viability, T/C [18]: 44.2% | viability, T/C [19]: 51.8% | viability, T/C [20]: 51.5% | viability, T/C [21]: 50.6% | viability, T/C [22]: 46.1% | viability, T/C [23]: 51.1% | viability, T/C [24]: 34.1% | viability, T/C [25]: 46.2% | viability, T/C [26]: 48.4% | viability, T/C [27]: 39.1% | viability, T/C [28]: 41.6% | viability, T/C [29]: 43.8% | viability, T/C [30]: 39.8% | viability, T/C [31]: 40.5% | viability, T/C [32]: 51% | viability, T/C [33]: 45.6% | viability, T/C [34]: 47.7% | viability, T/C [35]: 57.2% | viability, T/C [36]: 31.8%

CC1COCCN1c1cc(C2(S(C)(=N)=O)CC2)nc(-c2ccnc3[nH]ccc23)n1 (stereo unspecified) + CNC(=O)c1ccc(Nc2nc(OC3CCCC3)c3c(-c4ccc5nc(C)oc5c4)c[nH]c3n2)c(OC)c1
IC50 (second compound 0.0316 µM): 5960 nM | IC50 (second compound 0.1 µM): 2860 nM | IC50 (second compound 0.316 µM): 404 nM | IC50 (second compound 1 µM): < 31.6 nM | IC50 (second compound 3.16 µM): < 31.6 nM | IC50 (second compound 10 µM): < 31.6 nM | viability, T/C [1]: 125% | viability, T/C [2]: 96.2% | viability, T/C [3]: 91.9% | viability, T/C [4]: 69.8% | viability, T/C [5]: 53.9% | viability, T/C [6]: 45.9% | viability, T/C [7]: 101% | viability, T/C [8]: 79.1% | viability, T/C [9]: 73.1% | viability, T/C [10]: 55% | viability, T/C [11]: 54.8% | viability, T/C [12]: 39% | viability, T/C [13]: 51.2% | viability, T/C [14]: 53.8% | viability, T/C [15]: 53% | viability, T/C [16]: 40.2% | viability, T/C [17]: 37.7% | viability, T/C [18]: 35.6% | viability, T/C [19]: 44.7% | viability, T/C [20]: 47.6% | viability, T/C [21]: 50.8% | viability, T/C [22]: 35% | viability, T/C [23]: 21.8% | viability, T/C [24]: 23.1% | viability, T/C [25]: 42.5% | viability, T/C [26]: 46.5% | viability, T/C [27]: 44.4% | viability, T/C [28]: 34.9% | viability, T/C [29]: 34.6% | viability, T/C [30]: 27.8% | viability, T/C [31]: 44.1% | viability, T/C [32]: 37.9% | viability, T/C [33]: 41.7% | viability, T/C [34]: 29.6% | viability, T/C [35]: 26.6% | viability, T/C [36]: 17.2%

NC(=O)C(=Cn1cnc(-c2cc(C(F)(F)F)cc(C(F)(F)F)c2)n1)c1cncnc1 + CNC(=O)c1ccc(Nc2nc(OC3CCCC3)c3c(-c4ccc5nc(C)oc5c4)c[nH]c3n2)c(OC)c1
IC50 (second compound 0.0316 µM): 31.3 nM | IC50 (second compound 0.1 µM): 21.3 nM | IC50 (second compound 0.316 µM): < 9.49 nM | IC50 (second compound 1 µM): < 9.49 nM | IC50 (second compound 3.16 µM): < 9.49 nM | IC50 (second compound 10 µM): < 9.49 nM | viability, T/C (second compound 0.0316 µM, first compound 0.00949 µM): 70.8% | viability, T/C (second compound 0.0316 µM, first compound 0.03 µM): 49.3% | viability, T/C (second compound 0.0316 µM, first compound 0.0949 µM): 28.2% | viability, T/C (second compound 0.0316 µM, first compound 0.3 µM): 6.41% | viability, T/C (second compound 0.0316 µM, first compound 0.949 µM): 4.32% | viability, T/C (second compound 0.0316 µM, first compound 3 µM): 4.58% | viability, T/C (second compound 0.1 µM, first compound 0.00949 µM): 66.4% | viability, T/C (second compound 0.1 µM, first compound 0.03 µM): 40.8% | viability, T/C (second compound 0.1 µM, first compound 0.0949 µM): 27.1% | viability, T/C (second compound 0.1 µM, first compound 0.3 µM): 4.57% | viability, T/C (second compound 0.1 µM, first compound 0.949 µM): 3.53% | viability, T/C (second compound 0.1 µM, first compound 3 µM): 3.49% | viability, T/C (second compound 0.316 µM, first compound 0.00949 µM): 45.8% | viability, T/C (second compound 0.316 µM, first compound 0.03 µM): 33.4% | viability, T/C (second compound 0.316 µM, first compound 0.0949 µM): 17.1% | viability, T/C (second compound 0.316 µM, first compound 0.3 µM): 2.51% | viability, T/C (second compound 0.316 µM, first compound 0.949 µM): 4.77% | viability, T/C (second compound 0.316 µM, first compound 3 µM): 2.89% | viability, T/C (second compound 1 µM, first compound 0.00949 µM): 34% | viability, T/C (second compound 1 µM, first compound 0.03 µM): 19.8% | viability, T/C (second compound 1 µM, first compound 0.0949 µM): 14.9% | viability, T/C (second compound 1 µM, first compound 0.3 µM): 2.12% | viability, T/C (second compound 1 µM, first compound 0.949 µM): 1% | viability, T/C (second compound 1 µM, first compound 3 µM): 4.53% | viability, T/C (second compound 3.16 µM, first compound 0.00949 µM): 35.6% | viability, T/C (second compound 3.16 µM, first compound 0.03 µM): 19.2% | viability, T/C (second compound 3.16 µM, first compound 0.0949 µM): 12.4% | viability, T/C (second compound 3.16 µM, first compound 0.3 µM): 1.32% | viability, T/C (second compound 3.16 µM, first compound 0.949 µM): 6.47% | viability, T/C (second compound 3.16 µM, first compound 3 µM): 0.18% | viability, T/C (second compound 10 µM, first compound 0.00949 µM): 36% | viability, T/C (second compound 10 µM, first compound 0.03 µM): 18.8% | viability, T/C (second compound 10 µM, first compound 0.0949 µM): 3.67% | viability, T/C (second compound 10 µM, first compound 0.3 µM): 1.02% | viability, T/C (second compound 10 µM, first compound 0.949 µM): 3.87% | viability, T/C (second compound 10 µM, first compound 3 µM): 4.53%
